Data on 17 compounds can be found in PubChem BioAssay (NCI).

Where “and” joins values, the source holds several entries; their conditions need not be identical. Equal entries are not always repeated.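 Where inhibition never reached the appropriate level, the endpoint shown equals the highest concentration tested. Otherwise, values were interpolated linearly from a five-concentration, 48-hour dose response in 96-well plates. At the GI50, growth is halved. TGI: total growth inhibition.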 Bounds are passed on as bounds.

For one assay, the system named is HOP-92 NSCLC. The assay can be described thus: NCI-60 cell line screen, 48 h.
As to `COc1c(C)c2c(c(O)c1C/C=C(\C)CCC(=O)O)C(=O)OC2`, the GI50 is 0.959 µM and the TGI was greater than 100 µM.

For the compound `Cc1cc(O)c(C(C)C)cc1S(=O)(=O)O` (tested in a mixture with another compound), the GI50 is 0.188 µM and the TGI worked out at 1.66 µM.

For `COc1cc(C[C@H]2c3cc(OC)c(OC)cc3CCN2C)c(Oc2cc3c(cc2OC)-c2c(OC)c(OC)cc4c2[C@H](C3)N(C)CC4)cc1OC`, the GI50 was 13.3 µM; the TGI is 8.94 µM and 28.8 µM.

As for `COc1cc(C(=O)O[C@H](C(=O)NCCCCCNC(=O)[C@@H](OC(=O)c2cc(OC)cc3c(C)cccc23)[C@]2(C)CO2)[C@]2(C)CO2)c2cccc(C)c2c1`, the GI50 is 0.292 µM and the TGI came out at 0.867 µM.

`COc1cc2ccc(/C=C\[N+](=O)[O-])cc2cc1OC` returned a TGI of 10.1 µM.

The compound `COC(=O)C1(C)CCC(c2ccc(C)cc2)=C(CC(=O)O)C1` (centres undefined) came in with a TGI greater than 100 µM.

For `CCN(CC)CCCC(C)Nc1ccnc2cc(Oc3ccccc3)ccc12` (centres undefined), the GI50 was 5.62 µM and 3.78 µM; the TGI was 20.5 µM and 27 µM.

In turn, `COc1cc([C@@H]2OC[C@@H]3C(c4cc(OC)c5c(c4)OCO5)OC[C@@H]32)cc(OC)c1OC` (some centres undefined) showed a TGI greater than 100 µM.

For the compound `C=C1CCC2C3(C)COC(c4ccc(N(C)C)cc4)OC3CCC2(C)C1C/C=C1/C(=O)OCC1O` (centres undefined), the GI50 is 6.4 µM and the TGI came to 21.7 µM.

Take `COc1cc(OC(=O)c2ccccc2)cc2c1C(=O)C=CC2=O`: the TGI amounted to 5.05 µM.

On to `CC/C=C1/C(=O)C=C[C@@H]1C/C=C\CCCC(=O)OC`, for which the GI50 is 12.1 µM and the TGI came out at 25.1 µM.

In turn, `CCN(CC)CCCCNc1c2ccccc2[n+](C)c2c1[nH]c1ccccc12` registered a TGI of 0.28 µM.

For the compound `COc1ccc(C(=O)c2cc(OC)c(OC)c(OC)c2)cc1OC(=O)CCl`, the TGI is greater than 100 µM.

As to `COc1ccc(/C(COc2ccc3c(=O)cc(-c4ccccc4)oc3c2)=N\O)cc1`, the GI50 was greater than 27.7 µM and the TGI is greater than 50 µM.

Turning to `CC(C)(C)OC(=O)N1CCN(CCn2cc(C(F)(F)F)c3c(Cl)ncnc32)CC1`, the GI50 is 3.12 µM and the TGI was determined as 10.9 µM.

In the case of `Cc1ccc(Nc2n[nH]c(=S)s2)cc1C`, the TGI was greater than 100 µM.

For the compound `CN(C)CCN1C(=O)c2ccccc2N(C)c2ccccc21`, the GI50 is greater than 100 µM and the TGI was greater than 100 µM.

Another assay has as its system OVCAR-3 ovarian. The assay can be described thus: NCI-60 cell line screen, 48 h.
For the compound `COc1c(C)c2c(c(O)c1C/C=C(\C)CCC(=O)O)C(=O)OC2`, the GI50 is 0.286 µM and the TGI was greater than 100 µM.

Consider `Cc1cc(O)c(C(C)C)cc1S(=O)(=O)O` (tested in a mixture with another compound), for which the GI50 was 0.259 µM.

For the compound `COc1cc(C[C@H]2c3cc(OC)c(OC)cc3CCN2C)c(Oc2cc3c(cc2OC)-c2c(OC)c(OC)cc4c2[C@H](C3)N(C)CC4)cc1OC`, the GI50 is 11.8 µM; the TGI was 23.6 µM and 24.8 µM.

On to `COc1cc(C(=O)O[C@H](C(=O)NCCCCCNC(=O)[C@@H](OC(=O)c2cc(OC)cc3c(C)cccc23)[C@]2(C)CO2)[C@]2(C)CO2)c2cccc(C)c2c1`, for which the GI50 was 1.61 µM and the TGI was found to be 10.6 µM.

As to `COc1cc2ccc(/C=C\[N+](=O)[O-])cc2cc1OC`, the TGI worked out at 18.1 µM.

Consider `COC(=O)C1(C)CCC(c2ccc(C)cc2)=C(CC(=O)O)C1` (centres undefined), for which the TGI was greater than 100 µM.

Take `CCN(CC)CCCC(C)Nc1ccnc2cc(Oc3ccccc3)ccc12` (centres undefined): the GI50 is 13.7 µM and 22 µM; the TGI was 34.2 µM and > 100 µM.

`COc1cc([C@@H]2OC[C@@H]3C(c4cc(OC)c5c(c4)OCO5)OC[C@@H]32)cc(OC)c1OC` (some centres undefined): the TGI is greater than 100 µM.

In the case of `C=C1CCC2C3(C)COC(c4ccc(N(C)C)cc4)OC3CCC2(C)C1C/C=C1/C(=O)OCC1O` (centres undefined), the GI50 is 1.96 µM and the TGI came out at 3.98 µM.

Take `COc1cc(OC(=O)c2ccccc2)cc2c1C(=O)C=CC2=O`: the TGI came out at 14.2 µM.

For the compound `CC/C=C1/C(=O)C=C[C@@H]1C/C=C\CCCC(=O)OC`, the GI50 was 3.05 µM and the TGI is 10.2 µM.

As to `CCN(CC)CCCCNc1c2ccccc2[n+](C)c2c1[nH]c1ccccc12`, the GI50 was 0.433 µM and the TGI is 3.56 µM.

With `COc1ccc(C(=O)c2cc(OC)c(OC)c(OC)c2)cc1OC(=O)CCl`, the GI50 was 0.0287 µM.

In the case of `COc1ccc(/C(COc2ccc3c(=O)cc(-c4ccccc4)oc3c2)=N\O)cc1`, the GI50 was 10.3 µM and the TGI worked out at 38.7 µM.

Consider `CC(C)(C)OC(=O)N1CCN(CCn2cc(C(F)(F)F)c3c(Cl)ncnc32)CC1`, for which the GI50 is 1.88 µM and the TGI worked out at 3.66 µM.

With `Cc1ccc(Nc2n[nH]c(=S)s2)cc1C`, the TGI was greater than 100 µM.

With `CN(C)CCN1C(=O)c2ccccc2N(C)c2ccccc21`, the GI50 was greater than 100 µM and the TGI is greater than 100 µM.

For another assay, the system named is EKVX NSCLC. The assay can be described thus: NCI-60 cell line screen, 48 h.
`COc1c(C)c2c(c(O)c1C/C=C(\C)CCC(=O)O)C(=O)OC2`: the GI50 is 0.892 µM and the TGI was greater than 100 µM.

As to `Cc1cc(O)c(C(C)C)cc1S(=O)(=O)O` (tested in a mixture with another compound), the GI50 is 0.678 µM; the TGI is > 100 µM and 14.3 µM.

With `COc1cc(C[C@H]2c3cc(OC)c(OC)cc3CCN2C)c(Oc2cc3c(cc2OC)-c2c(OC)c(OC)cc4c2[C@H](C3)N(C)CC4)cc1OC`, the GI50 was 17.6 µM; the TGI is 34.6 µM and 32.7 µM.

As to `COc1cc(C(=O)O[C@H](C(=O)NCCCCCNC(=O)[C@@H](OC(=O)c2cc(OC)cc3c(C)cccc23)[C@]2(C)CO2)[C@]2(C)CO2)c2cccc(C)c2c1`, the GI50 was 0.635 µM and the TGI turned out to be 3.72 µM.

Take `COc1cc2ccc(/C=C\[N+](=O)[O-])cc2cc1OC`: the TGI came out at 15.5 µM.

In the case of `COC(=O)C1(C)CCC(c2ccc(C)cc2)=C(CC(=O)O)C1` (centres undefined), the TGI was greater than 100 µM.

Take `CCN(CC)CCCC(C)Nc1ccnc2cc(Oc3ccccc3)ccc12` (centres undefined): the GI50 is 14.1 µM and 18.6 µM; the TGI is 31.8 µM and 98.7 µM.

As for `COc1cc([C@@H]2OC[C@@H]3C(c4cc(OC)c5c(c4)OCO5)OC[C@@H]32)cc(OC)c1OC` (some centres undefined), the TGI is greater than 100 µM.

For the compound `C=C1CCC2C3(C)COC(c4ccc(N(C)C)cc4)OC3CCC2(C)C1C/C=C1/C(=O)OCC1O` (centres undefined), the GI50 is 6.43 µM and the TGI was 21.9 µM.
